Experimental data published in PubChem BioAssay (NCI).
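The compound was tested at five concentrations on cells cultured in 96-well plates, with a 48-hour exposure period. GI50 is the concentration that inhibits growth by half. TGI: concentration producing complete growth inhibition.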

How the values were obtained:
Test in all cases: NCI-60 cell line screen, 48 h
[1] = system: 786-0 renal
[2] = system: ACHN renal
[3] = system: COLO 205 colon
[4] = system: HL-60(TB) leukemia
[5] = system: K-562 leukemia
[6] = system: MOLT-4 leukemia
[7] = system: SK-OV-3 ovarian
[8] = system: SN12C renal
[9] = system: SR leukemia
[10] = system: OVCAR-5 ovarian

Row | Compound | TGI [1] | TGI [2] | TGI [3] | TGI [4] | TGI [5] | TGI [6] | TGI [7] | TGI [8] | TGI [9] | TGI [10] | GI50 [1] | GI50 [2] | GI50 [3] | GI50 [4] | GI50 [5] | GI50 [6] | GI50 [10] | GI50 [7] | GI50 [8] | GI50 [9]
1 | O=C(c1ccccc1)C1CCCCN1C(=O)c1ccccc1 (stereo unspecified) | > 100 µM | > 100 µM | > 100 µM | > 100 µM | > 100 µM | > 100 µM | > 100 µM | > 100 µM | > 100 µM |  |  |  |  |  |  |  |  |  |  | 
2 | CC1OC(OCC2OC(Oc3c(-c4ccc(O)cc4)oc4cc(O)cc(O)c4c3=O)C(OC3OC(C)C(O)C(O)C3O)C(O)C2O)C(O)C(O)C1O (stereo unspecified) | > 100 µM | > 100 µM | > 72.7 µM | > 100 µM | > 31.6 µM | > 100 µM | > 100 µM | > 100 µM | > 100 µM | > 100 µM |  |  |  |  |  |  |  |  |  | 
3 | COC[C@@H](N=CN1CCc2cc(OC)c(OC)cc2[C@@H]1C)C(C)(C)C | > 100 µM | > 100 µM | > 100 µM | > 100 µM | > 100 µM | > 100 µM | > 100 µM | > 100 µM | > 100 µM |  |  |  |  |  |  |  |  |  |  | 
4 | CC1(C)C(=O)C(C)(C)C1=NN | > 100 µM | > 100 µM | > 100 µM | > 100 µM | > 100 µM | > 100 µM | > 100 µM | > 100 µM | > 100 µM | > 100 µM |  |  |  |  |  |  |  |  |  | 
5 | COc1cc2c(c(OC)c1OC)-c1ccc(N)c(=O)cc1[C@@H](NC(C)=O)CC2 | > 100 µM | > 100 µM | 0.0386 µM |  | > 100 µM | > 100 µM | > 100 µM | > 100 µM | > 100 µM | > 100 µM | 0.108 µM | 0.152 µM | 0.012 µM | 0.0171 µM | < 0.014 µM | 0.0395 µM | 0.202 µM | 0.0388 µM | 0.0546 µM | < 0.01 µM
6 | CCn1c(C(=O)N(C2CC2)C2CC2)cc2c3c(ncn3C)c(Nc3cc(C)n(C)n3)nc21 | > 100 µM | > 100 µM | > 100 µM | > 100 µM | > 100 µM | > 100 µM | > 100 µM | > 100 µM | > 100 µM | > 100 µM | > 100 µM | > 100 µM | > 100 µM | > 100 µM | > 100 µM | > 100 µM | > 100 µM | > 100 µM | 98.3 µM | 16.8 µM
7 | CCOC(=O)C1=C(C(=O)c2ccc(C)cc2)C(c2cccc([N+](=O)[O-])c2)C(C(=O)c2ccc(C)cc2)=C(C(=O)OCC)N1 | 32.9 µM | 28.3 µM | 4.03 µM | 96.7 µM | 57.9 µM | > 100 µM | 27.9 µM | 32.4 µM | 35.3 µM | 34.7 µM |  |  |  |  |  |  |  |  |  | 
8 | O=C(Nc1ccc(F)cc1)c1ccc(NC2=C(Cl)C(=O)N(Cc3ccccc3)C2=O)cc1 | 22.9 µM | 27.8 µM | > 100 µM | 7.35 µM | 13.7 µM | 21 µM | 68 µM | 16.4 µM | 2.54 µM | 27.1 µM | 10.5 µM | 14.3 µM | 22.1 µM | 2.31 µM | 3.79 µM | 3.79 µM | 9.15 µM | 24 µM | 4.12 µM | 0.848 µM
9 | O=Nc1c(-c2c(O)[nH]c3ccc([N+](=O)[O-])cc23)[nH]c2ccc(O)cc12 | > 100 µM | > 100 µM | 40.5 µM | 1.04 µM | > 37.7 µM | 4.21 µM |  | > 100 µM | 12.6 µM | 51.1 µM | 0.319 µM | 0.261 µM | 5.92 µM | 0.312 µM | 0.456 µM | 0.359 µM | 1.65 µM |  | 0.366 µM | 0.258 µM
10 | COC(=O)C(C(=O)C(=O)Nc1ccc(C(F)(F)F)cc1[N+](=O)[O-])c1csc(-n2nc(-c3ccccc3)cc2-c2ccccc2)n1 (stereo unspecified) | > 100 µM |  | > 100 µM | > 100 µM | > 100 µM | > 100 µM | > 100 µM | > 100 µM | > 100 µM | > 100 µM |  |  |  |  |  |  |  |  |  | 
11 | COC1=CC(=O)C2C(C1=O)[C@@H]1c3ccccc3C[C@H]21 (stereo partly specified) | > 100 µM | > 100 µM | > 100 µM | > 100 µM | > 100 µM | > 100 µM | > 100 µM |  | > 100 µM | > 100 µM |  |  |  |  |  |  |  |  |  | 
12 | COc1ccc(-c2oc3c(OC)c(OC)c(OC)c(O)c3c(=O)c2OC)cc1OC | > 77.9 µM | > 100 µM | > 73.1 µM | 26.1 µM | > 54.3 µM | 51.9 µM | 63.8 µM | > 100 µM | 45.1 µM | > 100 µM |  |  |  |  |  |  |  |  |  | 
13 | CCCCS(=O)CCC(N)C(=O)O (stereo unspecified) | > 100 µM | > 100 µM | > 100 µM | > 100 µM | > 100 µM | > 100 µM | > 100 µM | > 100 µM | > 100 µM | > 100 µM |  |  |  |  |  |  |  |  |  | 
14 | CC(C)C1(O)C(c2ccccc2)=C(c2ccccc2)C(c2ccccc2)=C1c1ccccc1 | 74.4 µM |  | 21.7 µM | 7.07 µM | > 100 µM | 9.27 µM | > 100 µM | 41.6 µM | 36 µM | > 100 µM |  |  |  |  |  |  |  |  |  | 
15 | CCCCc1c2c(nc3c1CCc1cc4cc5c(nc4nc1-3)-c1nc3c(c(CCCC)c1CC5)CCCC3)CCCC2 | > 100 µM | > 100 µM | > 100 µM | > 100 µM | > 100 µM | > 100 µM | > 100 µM | > 100 µM | > 100 µM |  |  |  |  |  |  |  |  |  |  | 
16 | C=CCN(/C=C1/C(=O)O[C@H](COC)[C@@]2(C)C1=C(O)C(=O)C1=C2[C@H](OC(C)=O)C[C@]2(C)C(=O)CC[C@@H]12)CC=C | > 10 µM | > 10 µM | > 10 µM | > 10 µM | > 10 µM | > 10 µM | > 8.47 µM | > 10 µM | > 10 µM | > 10 µM | 0.379 µM | 1.53 µM | 2.17 µM | 0.286 µM | > 8.1 µM | 1.05 µM | 1.08 µM | 0.331 µM | 1.11 µM | 0.708 µM
17 | O=C1c2ccc([N+](=O)[O-])cc2-c2c1c1ccccc1c(=O)n2CCCNCCCNCCCn1c2c(c3ccc([N+](=O)[O-])cc3c1=O)C(=O)c1ccccc1-2 | 7.21 µM | 15.9 µM | 6.83 µM | 7.48 µM | 1.97 µM | 2.11 µM | 19.2 µM | 2.91 µM | 2.83 µM | 11.3 µM | 1.2 µM | 4.26 µM | 1.33 µM | 2.09 µM | 0.539 µM | 0.129 µM | 3.05 µM | 4.79 µM | 0.355 µM | 0.0306 µM
